{
  "source": "paper PMC10989010",
  "about": "“A panel of janus kinase inhibitors identified with anti-inflammatory effects protect mice from lethal influenza virus infection” (Antimicrobial Agents and Chemotherapy, 2024)",
  "key": {"U937 cells": {"tested_on": "U937 cells", "test": "Cytotoxicity assay (CellTiter-Glo)", "type": "cell-based, human", "settings": "U937 cells; CellTiter-Glo; mean of three independent experiments", "description": "(§1) The compound cytotoxicity was determined by CellTiter-Glo Assay (Promega, Madison, WI, USA). After adding 15 µL of CellTiter-Glo reagent to each well, plates were incubated at room temperature for 15 minutes with shaking. The luminescence intensity was determined by a multimode plate reader (Wallac Envision, PerkinElmer, MA, USA)."}, "IP-10": {"tested_on": "IP-10", "test": "cells", "type": "cell-based, human", "settings": "read-out: IC50 IP-10"}, "IL-8": {"tested_on": "IL-8", "test": "U937 cell-based anti-inflammatory assay for influenza virus infection, IL-8 production (AlphaLISA)", "parameters": "species or system human", "settings": "read-out: IC50 IL-8", "description": "U937 cells were seeded in a 96-well culture plate at a density of 1.5 × 10^5 cells per well and incubated for 24 hours prior to virus infection. Subsequently, the cells in each well were infected with the PR8 virus at a multiplicity of infection of 0.05 and treated with serially diluted drugs or left untreated as a control. The drugs were serially diluted threefold, starting from an initial concentration of 200 µM down to 0.01 µM. […] Following this incubation, the supernatants were collected and subjected to AlphaLISA analysis to determine IL-8, IP-10, and MCP1 protein levels.\nThe AlphaLISA detection kits employed in this study were IL-8 (PerkinElmer AL224), IP-10 (PerkinElmer AL259), and MCP1 (PerkinElmer, AL244). U937 cell culture supernatants were measured for IL-8, IP-10, and MCP-1 protein levels using AlphaLISA assay as per the manufacturer’s recommendations. The ELISA and AlphaLISA plates were read using the Varioskan LUX multimode microplate reader (Thermo Scientiﬁc, Waltham, MA, USA)."}, "MCP1": {"tested_on": "MCP1", "test": "cells", "type": "cell-based, human", "settings": "read-out: IC50 MCP1"}, "[1]": {"test": "Cytotoxicity assay (CellTiter-Glo)", "type": "cell-based, human", "settings": "human", "description": "as §1"}, "[2]": {"settings": "U937 cells, CellTiter-Glo, mean of three independent experiments, read-out: CC50"}},
  "note": "Structures can show the parent of a compound that is named as a salt. Where two headings read alike, the source gives them in different places.",
  "data": [
    {"molecule": "CCS(=O)(=O)N1CCN(c2ccc(Nc3ncc(C(N)=O)c(NC4CC4)n3)cc2)CC1", "note": "[Cerdulatinib hydrochloride]", "values": [
      {"measurement": "CC50", "setting": "U937 cells", "value": 3500, "unit": "nM"},
      {"measurement": "IC50", "setting": "IP-10; Homo sapiens, U-937, 72 h", "value": 50, "unit": "nM"},
      {"measurement": "IC50", "setting": "IL-8; Homo sapiens, U-937, 72 h", "value": "< 5", "unit": "nM"},
      {"measurement": "IC50", "setting": "MCP1; Homo sapiens, U-937, 72 h", "value": 20, "unit": "nM"}
    ]},
    {"molecule": "C[C@@H]1CCN(C(=O)CC#N)C[C@@H]1N(C)c1ncnc2[nH]ccc12", "note": "[Tofacitinib citrate]", "values": [
      {"measurement": "CC50", "setting": "[1]; [2]", "value": "> 100000", "unit": "nM"}
    ]},
    {"molecule": "N#CC[C@@H](C1CCCC1)n1cc(-c2ncnc3[nH]ccc23)cn1", "note": "[S-Ruxolitinib]", "values": [
      {"measurement": "CC50", "setting": "[1]; [2]", "value": 100000, "unit": "nM"},
      {"measurement": "IC50", "setting": "IP-10; Homo sapiens, U-937, 72 h", "value": 80, "unit": "nM"},
      {"measurement": "IC50", "setting": "IL-8; Homo sapiens, U-937, 72 h", "value": 30, "unit": "nM"},
      {"measurement": "IC50", "setting": "MCP1; Homo sapiens, U-937, 72 h", "value": 60, "unit": "nM"}
    ]},
    {"molecule": "CCS(=O)(=O)N1CC(CC#N)(n2cc(-c3ncnc4[nH]ccc34)cn2)C1", "note": "[Baricitinib]", "values": [
      {"measurement": "CC50", "setting": "U937 cells", "value": "> 100000", "unit": "nM"}
    ]},
    {"molecule": "Cc1cc(Nc2nc(N[C@@H](C)c3ncc(F)cn3)ncc2Cl)n[nH]1", "note": "[AZD1480]", "values": [
      {"measurement": "CC50", "setting": "[1]; [2]", "value": 13500, "unit": "nM"},
      {"measurement": "IC50", "setting": "IP-10; Homo sapiens, U-937, 72 h", "value": 1000, "unit": "nM"},
      {"measurement": "IC50", "setting": "IL-8; Homo sapiens, U-937, 72 h", "value": 1100, "unit": "nM"},
      {"measurement": "IC50", "setting": "MCP1; Homo sapiens, U-937, 72 h", "value": 300, "unit": "nM"}
    ]},
    {"molecule": "C[C@@H]1CCN(C(=O)CC#N)C[C@@H]1N(C)c1ncnc2[nH]ccc12", "note": "[Tofacitinib]", "values": [
      {"measurement": "CC50", "setting": "U937 cells", "value": "> 100000", "unit": "nM"}
    ]},
    {"molecule": "NC(=O)c1cnc2[nH]ccc2c1N[C@@H]1[C@@H]2CC3C[C@H]1C[C@@](O)(C3)C2", "note": "[Peficitinib]", "values": [
      {"measurement": "CC50", "setting": "[1]", "value": 34700, "unit": "nM"},
      {"measurement": "IC50", "setting": "IP-10; Homo sapiens, U-937, 72 h", "value": 20, "unit": "nM"},
      {"measurement": "IC50", "setting": "IL-8; Homo sapiens, U-937, 72 h", "value": 10, "unit": "nM"}
    ]},
    {"molecule": "CC[C@@](C)(Nc1ccnc(-c2c[nH]c3ncccc23)n1)C(=O)NCC(F)(F)F", "note": "[Decernotinib]", "values": [
      {"measurement": "CC50", "setting": "U937 cells", "value": 50000, "unit": "nM"},
      {"measurement": "IC50", "setting": "IP-10; Homo sapiens, U-937, 72 h", "value": 100, "unit": "nM"},
      {"measurement": "IC50", "setting": "MCP1; Homo sapiens, U-937, 72 h", "value": 50, "unit": "nM"}
    ]},
    {"molecule": "N#CCNC(=O)c1ccc(-c2ccnc(Nc3ccc(N4CCOCC4)cc3)n2)cc1", "note": "[Momelotinib]", "values": [
      {"measurement": "CC50", "setting": "U937 cells", "value": 5400, "unit": "nM"},
      {"measurement": "IC50", "setting": "IP-10; Homo sapiens, U-937, 72 h", "value": 480, "unit": "nM"},
      {"measurement": "IC50", "setting": "IL-8; Homo sapiens, U-937, 72 h", "value": 300, "unit": "nM"},
      {"measurement": "IC50", "setting": "MCP1; Homo sapiens, U-937, 72 h", "value": 30, "unit": "nM"}
    ]},
    {"molecule": "N#CC[C@H](C1CCCC1)n1cc(-c2ncnc3[nH]ccc23)cn1", "note": "[Ruxolitinib]", "values": [
      {"measurement": "CC50", "setting": "U937 cells", "value": 100000, "unit": "nM"},
      {"measurement": "IC50", "setting": "IP-10; Homo sapiens, U-937, 72 h", "value": 70, "unit": "nM"},
      {"measurement": "IC50", "setting": "IL-8; Homo sapiens, U-937, 72 h", "value": 120, "unit": "nM"},
      {"measurement": "IC50", "setting": "MCP1; Homo sapiens, U-937, 72 h", "value": 30, "unit": "nM"}
    ]},
    {"molecule": "Cc1cc(Nc2nc(N[C@@H](C)c3ccc(F)cc3)c(C#N)cc2F)n[nH]1", "note": "[AZ 960]", "values": [
      {"measurement": "CC50", "setting": "U937 cells", "value": 6000, "unit": "nM"},
      {"measurement": "IC50", "setting": "IP-10; Homo sapiens, U-937, 72 h", "value": 10, "unit": "nM"},
      {"measurement": "IC50", "setting": "IL-8; Homo sapiens, U-937, 72 h", "value": "< 5", "unit": "nM"},
      {"measurement": "IC50", "setting": "MCP1; Homo sapiens, U-937, 72 h", "value": "< 5", "unit": "nM"}
    ]},
    {"molecule": "Cc1cc(Nc2cc(CN3CCOCC3)c3nc(C)c(Cc4ccc(Cl)cc4F)n3n2)n[nH]1", "note": "[Gandotinib]", "values": [
      {"measurement": "CC50", "setting": "U937 cells", "value": 26000, "unit": "nM"},
      {"measurement": "IC50", "setting": "IP-10; Homo sapiens, U-937, 72 h", "value": 10, "unit": "nM"},
      {"measurement": "IC50", "setting": "IL-8; Homo sapiens, U-937, 72 h", "value": "< 5", "unit": "nM"},
      {"measurement": "IC50", "setting": "MCP1; Homo sapiens, U-937, 72 h", "value": "< 5", "unit": "nM"}
    ]},
    {"molecule": "O=C(Nc1ccc(-c2ccnc(Nc3ccc(N4CCOCC4)cc3)n2)cc1)C1CCCN1", "note": "(stereo not drawn) [XL019]", "values": [
      {"measurement": "CC50", "setting": "U937 cells", "value": 26700, "unit": "nM"},
      {"measurement": "IC50", "setting": "IP-10; Homo sapiens, U-937, 72 h", "value": 990, "unit": "nM"},
      {"measurement": "IC50", "setting": "IL-8; Homo sapiens, U-937, 72 h", "value": 510, "unit": "nM"},
      {"measurement": "IC50", "setting": "MCP1; Homo sapiens, U-937, 72 h", "value": 940, "unit": "nM"}
    ]},
    {"molecule": "CN1CCN(c2cccc(Nc3nc4c(-c5ccc(S(C)(=O)=O)cc5)cccn4n3)c2)CC1", "note": "[CEP-33779]", "values": [
      {"measurement": "CC50", "setting": "U937 cells", "value": 10500, "unit": "nM"},
      {"measurement": "IC50", "setting": "IP-10", "value": 220, "unit": "nM"},
      {"measurement": "IC50", "setting": "IL-8; U937 cells infected with PR8 virus, 72 hours, Alphalisa, mean of three independent experiments", "value": 360, "unit": "nM"},
      {"measurement": "IC50", "setting": "MCP1", "value": 240, "unit": "nM"}
    ]}
  ]
}
